Experimental data as given in patent EP4458977A1, “SELF-ASSEMBLING PEPTIDE AMPHIPHILES AS RETROVIRAL TRANSDUCTION ENHANCERS” (Max-Planck-Gesellschaft zur Förderung der Wissenschaften …, priority 2023, dated 2024).
“Also recorded” adds a separate entry of the source. Where a SMILES comes first, the peptide text is derived from it. Where no end group is shown, it is not given here. The star is where a group is joined. X2 = CC/C=C\C/C=C\C/C=C\CCCCCCCC(=O)*; Palmitoyl = CCCCCCCCCCCCCCCC(=O)*

Experiments:
[1] = TEM of peptide assemblies (fibril formation / assembly); format: physicochemical; conditions: for TEM morphology (in words): 1 mg/mL in PBS; for Assembly without hydrophob residue: corresponding peptide without hydrophobic moiety; for Assembly: peptide amphiphile
Experimental: The peptides were predissolved in DMSO to a concentration of 10 mg/mL. The fibril formation was induced by further diluting the solution to a final incubation concentration of 650 µM or 1 mg/mL in PBS as indicated in the text and incubated for 1 d (1 day) at rt (room temperature, 20 °C - 25 °C). Other concentrations as described herein were achieved by further dilution of preformed fibrils.
(§1) Transmission electron microscopy (TEM) measurements, Thioflavin (ThT), zeta-potential measurements for fibril characterization were prepared and conducted according to prior art procedures. […] Fibrils were defined as distinct, if no visible structures could be identified in fluorescence and brightfield microscopy.

[2] = Zeta-potential measurement (dynamic light scattering); format: physicochemical
Experimental: Zeta-potential: 60 µL of the peptides (1 mg mL-1) were diluted in 600 µL, 1 mM KCI solution and placed in a disposable folded capillary cuvette. All zeta-potential measurements were conducted by dynamic light scattering technology (Zetasizer, Malvern Instruments) and in triplicates for each sample. The derived count rate of the zeta potential measurement was used as information on the light scattering intensity and turbidity of the sample as a further indicator for microscopic aggregation.

[3] = test system: HIV-1; conditions: for Infectivity enhancing N fold at 1.3 µM: relative to virus only; for enhancement of HIV-1 infection / transduction (in words): 6.5 µM, 1.3 µM, 0.26 µM;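 on all read-outs here: TZM-bl reporter cells exposed to HIV-1 with peptide fibrils, infection read out as β-galactosidase luminescence, compared with virus alone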
Experimental: HIV-1 Infection Assay with TZM-bl cells: The effect of peptide fibrils on HIV-1 infection was studied via a luminescence assay for β-galactosidase, which was reported by TZM-bl cells upon infection. The HIV-1 infection assay was conducted in three technical replicates and repeated in three independent experiments unless stated otherwise.

[4] = ATR-FT-IR determination of β-sheet content; format: physicochemical; conditions: 1 mg/mL in PBS lyophilized; integral at 1630 cm^-1 relative to 1650-1700 cm^-1
Experimental: ATR-FT-IR: ATR-IR spectra acquisition and the calculation of β-sheet content were conducted according prior art procedures. Briefly, FT-IR spectra of solid samples were recorded after lyophilization of fibril solutions using a Bruker Tensor II spectrometer equipped with a diamond crystal as ATR element with a spectral resolution of 2 cm^-1, each spectrum was an average of 64 scans. The data was processed with Origin software. β-sheet amount was determined by calculating the integral of the peak at 1630 cm-1 (β-sheet) relative to the integral between 1650-1700 cm-1 (native structure) from the 2nd derivative of the FT-IR spectra.

[5] = test system: HeLa cells; assay: Confocal laser scanning microscopy and degradation study with PA library and HeLa cells; format: cell-based; conditions: for association with cellular membranes: 2 µg added to 20.000 HeLa cells, 30 min; for degradability (in words) / Degradability / % (rel. to initial particles > 10 µm^2): HeLa cells; for degradability (in words): 3 days; for Degradability / % (rel. to initial particles > 10 µm^2): 3 d relative to 30 min
Experimental: In general, the procedure for determine whether a PA is degraded or not, is conducted by confocal laser scanning microscopy of Proteostat stained PAs which are added to Hela cells (2 µg peptide added to 20.000 cells). Microscopy is conducted at day 0 (d0, after 30 min of incubation) and at day 3 (d3, after 72 h of incubation). The number of aggregates >10 µm^2 is counted via 3D object counter in imaged in an area of 1008 µm × 1008 µm.
A PA is considered to be degradable if the number and the size of aggregates are reduced after 3 days. The efficiency is determined by the percentual degradation (aggregate number at d3 / aggregate number at d0). For the number of aggregation three technical replicates were evaluated for each sample. A large deviation represents a nonhomogeneous spatial distribution of aggregates.
Confocal laser scanning microscopy and degradation study with PA library and HeLa cells: Confocal laser scanning microscopy studies were performed for the visualization of the cell-PA interaction. HeLa cells were seeded one day prior to conducting the assay (20,000/well) in an 8-well IBIDI slide. […] The nucleus of the HeLa cells was stained with Hoechst 33342 (NucBlue™, Thermo Fisher Scientific). The peptide solution mixture was transferred to the HeLa cells and incubated for 30 min at 37°C before washing three times with PBS. […] For the evaluation of aggregate degradation, the samples were further incubated at 37°C for 3 d and analyzed without any additional washing step. […] The number of aggregates were determined by counting aggregates larger than the threshold 10 µm^2 in an area of 1008 × 1008 µm and repeated in three technical triplicates.

[6] = Fluorescence microscopy of ThT-stained fibrils (µm-sized aggregates); format: physicochemical; conditions: 1 mg/mL stained with 50 µM ThT
Experimental: as §1
Fluorescence microscopy: 1 µL Fibrils (1 mg mL^-1) were stained with 9 µL, 50 µM ThT. 10 µL of the stained fibrils (0.1 mg mL^-1) were placed on a microscopy glass. Fluorescence microscopy measurements were performed on a Leica DMi8 microscope with 10x air objective and equipped with a Leica MC170 HD camera with a filter setting λem = 527/30 nm upon excitation at λex = 480/40 nm) and processed with the Leica LASX software.

| Compound | TEM morphology (in words) [1] | Assembly without hydrophob residue [1] | Assembly [1] | zeta-potential (in words) [2] | Infectivity enhancing N fold at 1.3 µM [3] [N fold] | β-sheet amount [4] [%] | association with cellular membranes [5] | fluorescent, µm-sized aggregates (ThT staining) [6] | infectivity enhancement at 1.3 µM concentration compared to virus only infection (in words) [3] | enhancement of HIV-1 infection / transduction (in words) [3] | degradability (in words) [5] | Degradability / % (rel. to initial particles > 10 µm^2) [5] [%] | aggregate number increases ([5]; d3 relative to d0) [%] | enhances infectivity at 1.3 µM concentration, times more efficient compared to virus only infection [3] [times] | aggregate number decreases / degraded in presence of HeLa cells within 3 days ([5]; d3 relative to d0) | TEM morphology (in words) ([1]; listed as NFYLQVNKINK) |
| --- | --- | --- | --- | --- | --- | --- | --- | --- | --- | --- | --- | --- | --- | --- | --- | --- |
| CC/C=C\C/C=C\C/C=C\CCCCCCCC(=O)N[C@H](C(=O)N[C@H](C(=O)N[C@H](C(=O)N[C@@H](C)C(=O)N[C@@H](C)C(=O)N[C@@H](C)C(=O)N[C@@H](CCCCN)C(=O)N[C@@H](CCCCN)C(=O)N[C@@H](CCCCN)C(N)=O)C(C)C)C(C)C)C(C)C [Pat9] (X2-VVVAAAKKK-NH2) | failed to form fibrils in aqueous medium | No | No | almost neutral zeta-potential | 1±0 | – | – | – | – | – | – | – | – | – | – | – |
| CCCCCCCCCCCCCCCC(=O)N[C@@H](CCCCN)C(=O)NCC(=O)N[C@H](C(=O)N1CCC[C@H]1C(=O)NCC(=O)N[C@H](C(=O)NCC(=O)N[C@@H](CCCCN)C(N)=O)C(C)C)C(C)C [Pat25] (Palmitoyl-KGVPGVGK-NH2) | not forming fibrils; also recorded: no fibrillar morphologies | Yes | No | – | 1±0 | 0 | no association with cellular membranes | fluorescent, µm-sized aggregates | do not enhance infectivity | no infectivity enhancement can be observed | – | – | – | – | – | – |
| CCCCCCCCCCCCCCCC(=O)N[C@@H](CCCCN)C(=O)N[C@@H](Cc1ccc(O)cc1)C(=O)N[C@H](C(=O)N[C@@H](Cc1c[nH]cn1)C(=O)N[C@@H](CCC(N)=O)C(=O)N[C@@H](CC(N)=O)C(=O)N[C@@H](Cc1ccc(O)cc1)C(=O)N[C@H](C(=O)N[C@@H](CCCCN)C(=O)N[C@@H](C)C(=O)N[C@@H](CC(C)C)C(=O)N[C@@H](C)C(=O)NCC(=O)N[C@@H](CCCCN)C(=O)N[C@@H](CC(C)C)C(=O)N[C@H](C(N)=O)C(C)C)[C@@H](C)O)[C@@H](C)CC [Pat26] (Palmitoyl-KYIHQNYTKALAGKLV-NH2) | fibrillar morphologies | No | Yes | – | 5±2 | 51 | association with cellular membranes | fluorescent, µm-sized aggregates | does not enhance infectivity | – | cannot be degraded; also recorded: not efficiently degradable; also recorded: non-degradable PA | -110 | 110 | 5 | – | – |
| CCCCCCCCCCCCCCCC(=O)N[C@@H](CC(N)=O)C(=O)N[C@@H](Cc1ccccc1)C(=O)N[C@@H](Cc1ccc(O)cc1)C(=O)N[C@@H](CC(C)C)C(=O)N[C@@H](CCC(N)=O)C(=O)N[C@H](C(=O)N[C@@H](CC(N)=O)C(=O)N[C@@H](CCCCN)C(=O)N[C@H](C(=O)N[C@@H](CC(N)=O)C(=O)N[C@@H](CCCCN)C(N)=O)[C@@H](C)CC)C(C)C [Pat27] (Palmitoyl-NFYLQVNKINK-NH2) | fibrillar morphologies | Yes | Yes | – | 5±1 | 60 | association with cellular membranes | fluorescent, µm-sized aggregates | – | – | cannot be degraded; also recorded: not efficiently degradable; also recorded: non-degradable PA | -123 | 123 | 5 | – | – |
| CCCCCCCCCCCCCCCC(=O)NCC(=O)NCC(=O)NCC(=O)N[C@@H](CO)C(=O)N[C@@H](CO)C(=O)N[C@@H](CCCCN)C(=O)N[C@@H](CCCCN)C(=O)N[C@@H](CCCCN)C(N)=O [Pat28] (Palmitoyl-GGGSSKKK-NH2) | fibrillar morphologies | No | Yes | – | 2±1 | 26 | no association with cellular membranes | no fluorescent, µm-sized aggregates | – | – | – | – | – | – | – | – |
| CCCCCCCCCCCCCCCC(=O)NCC(=O)N[C@@H](CCCCN)C(=O)N[C@H](C(=O)NCC(=O)N[C@@H](CO)C(=O)N[C@@H](CCCCN)C(N)=O)C(C)C [Pat30, C16-GKVGSK-NH2] (Palmitoyl-GKVGSK-NH2) | fibrillar morphologies | No | Yes | – | 2±1 | 41 | no association with cellular membranes | less fluorescent, µm-sized aggregates | does not enhance infectivity | do not efficiently enhance infectivity | – | – | – | – | – | – |
| CCCCCCCCCCCCCCCC(=O)N[C@@H](CCCCN)C(=O)N[C@H](C(=O)N[C@H](C(=O)N[C@@H](CO)C(=O)N[C@@H](Cc1ccccc1)C(=O)N[C@@H](CCCCN)C(N)=O)[C@@H](C)CC)[C@@H](C)CC [Pat32, C16-KIISFK-NH2] (Palmitoyl-KIISFK-NH2) | fibrillar morphologies | No | Yes | – | 2±1 | 46 | association with cellular membranes | fluorescent, µm-sized aggregates | does not enhances infectivity | – | cannot be degraded; also recorded: not efficiently degradable; also recorded: non-degradable PA | -84 | 84 | – | – | – |
| C16-disulfide-CVVVAAAKKK-NH2 (not fully specified (residue 1); printed as C16-disulfide-CVVVAAAKKK-NH2) [Pat2] | fibrillar morphologies | No | Yes | – | 4±2 | 57 | no visible association with cellular membranes | fluorescent, µm-sized aggregates | – | weak enhancers of HIV-1 infection | – | – | – | 4 | – | – |
| NFYLQVNKINK-NH2 [Pat46] | fibrillar morphologies | – | – | – | – | 49 | association with cellular membranes | fluorescent, µm-sized aggregates | – | potent enhancers of HIV-1 infection | not efficiently degradable; also recorded: non-degradable PA | – | – | – | stays also similar | unexpectedly forming fibrils by themselves |
